Results on one compound are retold here after patent publication US20090123904A1, “COMPOSITION FOR PRESERVING CELLS, TISSUES, OR ORGANS, PRODUCTION PROCESS AND USES” (BIOCYDEX, SOCIETE PAR ACTIONS SIMPLIFIEE, priority 2007, published 2009).

The nature of the data set: Dissolution of the powder in ViaSpan preservation medium. The following applies: in 10 ml of ViaSpan preservation medium, 100×-concentrated solution. The data set is classed as physicochemical. On the procedure: The production process consists in taking up 15.77 mg of propane diamine-β-CD in powder form in 10 ml of the preservation medium ViaSpan® to obtain a 100×-concentrated solution.
The preparation of the close mixture is carried out according to the following operating procedure: • 4.57 mg of resveratrol is added to 9 ml of a solution that contains 2495.3 mg of propane diamine-β-CD in water, • The pH is adjusted to 7.4, • The whole is stirred for 5 to 24 hours at 24° C. and in the absence of light, • The solution is next filtered in a Millipore hydrophilic PVDF filter and then freeze-dried to provide a powder that contains a close mixture whose resveratrol/propane diamine-β-CD molar ratio is 1/111, • The freeze-dried close mixture is preserved in amber bottles at 4° C., • 15.8 mg of the close mixture is then taken up in 10 ml of the ViaSpan® preservation medium to obtain a 100×-concentrated solution.

Turning to `NCCCNCC1OC2OC3C(CO)OC(OC4C(CO)OC(OC5C(CO)OC(OC6C(CO)OC(OC7C(CO)OC(OC8C(CO)OC(OC1C(O)C2O)C(O)C8O)C(O)C7O)C(O)C6O)C(O)C5O)C(O)C4O)C(O)C3O` (stereo not drawn) [propane diamine-β-CD, 6A-(3-aminopropylamino)-6A-deoxy-cyclomatoheptaose], the “Dissolution of the powder” value is reported as “dissolves instantaneously”.
